Measured values as given in US20260125428A1, “SYNTHETIC TRIPLEX PEPTIDE NUCLEIC ACID-BASED INHIBITORS FOR CANCER THERAPY” (University of Connecticut, priority 2022, published 2026).

Tested on: c-myc protein
Experiment: Efficacy study in Ep-myc mice: c-myc protein in lymph nodes by western blot
Assay type: in vivo
Details: SC 60 mg/kg over 2 days, euthanized day 3, western blot
Method: FIGS. 8A-D show organ distribution after intravenous and subcutaneous administration of indicated PNAs. (8A) The organ distribution of γPNA-NLS TAMRA after intravenous (IV) and subcutaneous (SC) administration in transgenic mice model of B-cell lymphoma (Ep-myc). γPNA-NLS TAMRA was administered at 5 mg/kg via IV and SC route and organ distribution was determined via IVIS imaging after 24 h. (8B) Confocal microscopy images of different lymph nodes (LNs) after IV and SC injection of γPNA-NLS TAMRA. Blue indicates DAPI and red indicated TAMRA. Scale bar, 30 μm. (8C) C-myc protein levels in brachial lymph nodes of γPNA5-NLS treated mice in comparison to the control (untreated mice). N=4 mice per group. (8D) C-myc protein levels in axillary lymph nodes of γPNA5-NLS treated mice in comparison to the control (untreated mice). N=4 mice per group. […]
Western blot analysis: Total protein was extracted from collected lymphocytes using 1×RIPA buffer (Cell signaling technology, USA) containing protease inhibitor. The concentration of protein was determined using absorbance-based DC protein assay (Bio-Rad, USA). […] The bands were detected using anti-rabbit IgG HRP linked secondary antibody (Cell signaling technology, #7074) (1:2000 dilution, 5% milk in TBST) and HRP substrate (Millipore sigma). The blots were imaged using ChemiDoc imager (Bio-Rad, USA) and band intensities were quantified using imageJ.

X3TCCCTCCCCTCCCTTCTTTTTCCX2 (gamma PNA; NLS peptide; gammaPNA; misc_feature 1 JJJTJJJT-linker- is covalently linked to the backbone, wherein J is pseudoisocytosine and the linker is 11-Amino-3,6,9-Trioxaundecanoic Acid (DCHA), represented as -OOO-; misc_feature 23 -K-linker-SEQ ID NO: 5 is covalently linked to the backbone, wherein the linker is 11-Amino-3,6,9-Trioxaundecanoic Acid (DCHA), represented as -OOO-; modified_base 1..23 OTHER; peptide nuc) [γPNA5-NLS]
c-myc protein levels in brachial and axillary lymph nodes in comparison to untreated group: substantial decrease in c-myc protein levels
